Key:
[1] = for mass density: 298.15 K, 101.33 kPa, Liquid, Vibrating tube method; for Normal melting temperature: Crystal
[2] = refractive index (Na D-line) (dimensionless); settings: 298.15 K; 101.33 kPa; Liquid; Standard Abbe refractometry
[3] = refractive index (Na D-line) (dimensionless); xn = mol fraction of the nth substance listed; settings: 298.15 K, 101 kPa, Liquid, Standard Abbe refractometry
[4] = xn = mol fraction of the nth substance listed; settings: 298.15 K, 101 kPa, Liquid, Vibrating tube method

CCCCCCCCCCO [decan-1-ol]
Settings | Normal melting temperature [°C] | mass density [kg/m3] | refractive index
[1] | 7.04 | 826.59 | –
[2] | – | – | 1.43541

CCCCCCCCCCO [decan-1-ol] + CCCCCCCCO
[3]
Settings | refractive index
x2 = 0.05 | 1.435
x2 = 0.0996 | 1.4346
x2 = 0.1996 | 1.434
x2 = 0.2997 | 1.4333
x2 = 0.4005 | 1.4325
x2 = 0.5006 | 1.4318
x2 = 0.6005 | 1.431
x2 = 0.7006 | 1.4301
x2 = 0.8002 | 1.4293
x2 = 0.9 | 1.4284
x2 = 0.9507 | 1.4279

CCCCCCCCO [octan-1-ol]
Settings | Normal melting temperature [°C] | mass density [kg/m3] | refractive index
[1] | -15.30 | 821.76 | –
[2] | – | – | 1.42754

CCCCCCCCN(CCCCCCCC)CCCCCCCC [trioctylamine]
Settings | Normal melting temperature [°C] | mass density [kg/m3] | refractive index
[1] | -34.42 | 807.46 | –
[2] | – | – | 1.44758

CCCCCCCCN(CCCCCCCC)CCCCCCCC [trioctylamine] + CCCCCCCCCCO
Settings | mass density, [4] [kg/m3] | refractive index, [3]
x1 = 0.0504 | 825.4 | 1.437
x1 = 0.0998 | 824 | 1.4384
x1 = 0.2002 | 821.6 | 1.4406
x1 = 0.3 | 819.3 | 1.4424
x1 = 0.4002 | 817.3 | 1.4437
x1 = 0.501 | 815.4 | 1.4448
x1 = 0.6008 | 813.8 | 1.4457
x1 = 0.7007 | 812.3 | 1.4464
x1 = 0.8014 | 810.7 | 1.4469
x1 = 0.9022 | 809.2 | 1.4473
x1 = 0.9522 | 808.6 | 1.4475

CCCCCCCCN(CCCCCCCC)CCCCCCCC [trioctylamine] + CCCCCCCCO
Settings | mass density, [4] [kg/m3] | refractive index, [3]
x1 = 0.0497 | 820.8 | 1.4311
x1 = 0.1 | 819.7 | 1.433
x1 = 0.2 | 817.8 | 1.4359
x1 = 0.3004 | 816 | 1.4389
x1 = 0.4001 | 814.5 | 1.4415
x1 = 0.4997 | 813.1 | 1.4432
x1 = 0.6012 | 811.9 | 1.4445
x1 = 0.701 | 810.7 | 1.4453
x1 = 0.8002 | 809.7 | 1.4461
x1 = 0.8962 | 808.7 | 1.447
x1 = 0.9496 | 808.1 | 1.4474

— the NIST ThermoML archive (doi:10.1021/je900586f)
